Usually IC50 stands for the concentration that gives 50% inhibition. A word on the inhibition: it is the drop in the measured response relative to a control, in per cent. As usually defined, the Papp is a coefficient for how fast a substance crosses the barrier.

Where two headings read alike, the source gives them in different places.

The target of one series is T1, BuChE from equine serum (Equus caballus, UniProt P81908).
T1 construct: BuChE from equine serum (C4290-1KU; Sigma); purchased Sigma C4290-1KU; host or cells: equine serum
In words: eqBuChE inhibition assay (Ellman's method). In kind it is biochemical. The settings on record: BuChE from horse serum; for IC50: mean ± SEM; for inhibition at 20 µM: read-out: BuChE % inhibition at 20 µM. On the technique in general: In Ellman's method for cholinesterases, released thiocholine reacts with DTNB.

A further series addresses T2, AChE from electric eel (Electrophorus electricus, UniProt O42275).
T2 construct: assays were performed on AChE from electric eel (C3389-500UN; Sigma); purchased Sigma C3389-500UN
In words: EeAChE inhibition assay (Ellman's method). In kind it is biochemical. The settings on record: for inhibition at 20 µM: read-out: AChE % inhibition at 20 µM; for IC50: mean ± SEM, read-out: AChE IC50.

The conditions of series [1]: for BBB penetration: PAMPA-BBB class. Background: The PAMPA barrier holds no transporters, so it reflects passive diffusion.
Experimental: (§1) The 96-well UV plate (COSTAR) was manufactured by Corning Corporation, USA, and the commercially available drugs and test compounds were initially dissolved in DMSO at a concentration of 20 mg/mL. The solution was then diluted 200-fold with PBS (pH 7.4 ± 0.1)/EtOH (70/30, v/v) solution to a final concentration of 100 µg/mL.
(§2) The test compound was dissolved in DMSO at 5 mg/mL and diluted 200-fold with universal buffer (final concentration 25 µg/mL) to prepare the secondary stock solution; 200 µL of the secondary stock solution was added to the donor well; the acceptor plate was coated with 4 µL of 20 mg/mL dodecyl porcine polar brain, and then, 200 µL of pH 7.4 universal buffer was added to the acceptor well; the acceptor plate was carefully placed on the donor plate to form a “sandwich” and maintained for 18 h; the drug concentrations in the acceptor, donor and reference wells were determined using a UV microplate reader; the experiment was repeated three times, and the concentrations of the test compound in the donor and acceptor wells were measured using a UV plate spectral reader (PerkinElmer VICT or Nivo, Finland). In at least three independent experiments, each sample was analysed at three wavelengths in a four well.
Another series in a line: in vitro. The settings on record: PAMPA, PAMPA-BBB.
The mark [2] stands for this setting: AChE from electric eel, 20 µM, na = no inhibitory activity at 20 µM.

T1 sequence (P81908 whole entry): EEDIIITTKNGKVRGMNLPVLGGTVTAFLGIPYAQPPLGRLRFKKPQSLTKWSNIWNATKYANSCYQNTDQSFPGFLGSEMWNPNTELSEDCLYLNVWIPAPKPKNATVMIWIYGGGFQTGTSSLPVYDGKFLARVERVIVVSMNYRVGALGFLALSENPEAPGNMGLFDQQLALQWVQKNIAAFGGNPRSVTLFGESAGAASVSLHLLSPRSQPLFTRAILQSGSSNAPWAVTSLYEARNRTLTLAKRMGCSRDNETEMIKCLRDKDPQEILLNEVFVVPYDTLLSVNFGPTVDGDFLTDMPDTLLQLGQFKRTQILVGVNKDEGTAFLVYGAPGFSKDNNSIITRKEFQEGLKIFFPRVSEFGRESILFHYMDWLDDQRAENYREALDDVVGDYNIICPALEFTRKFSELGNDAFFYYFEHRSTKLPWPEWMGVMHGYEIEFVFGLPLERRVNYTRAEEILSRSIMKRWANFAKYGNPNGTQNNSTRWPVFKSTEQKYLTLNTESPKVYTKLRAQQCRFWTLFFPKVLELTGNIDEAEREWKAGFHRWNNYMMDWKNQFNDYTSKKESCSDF
T2 sequence (O42275 24-633): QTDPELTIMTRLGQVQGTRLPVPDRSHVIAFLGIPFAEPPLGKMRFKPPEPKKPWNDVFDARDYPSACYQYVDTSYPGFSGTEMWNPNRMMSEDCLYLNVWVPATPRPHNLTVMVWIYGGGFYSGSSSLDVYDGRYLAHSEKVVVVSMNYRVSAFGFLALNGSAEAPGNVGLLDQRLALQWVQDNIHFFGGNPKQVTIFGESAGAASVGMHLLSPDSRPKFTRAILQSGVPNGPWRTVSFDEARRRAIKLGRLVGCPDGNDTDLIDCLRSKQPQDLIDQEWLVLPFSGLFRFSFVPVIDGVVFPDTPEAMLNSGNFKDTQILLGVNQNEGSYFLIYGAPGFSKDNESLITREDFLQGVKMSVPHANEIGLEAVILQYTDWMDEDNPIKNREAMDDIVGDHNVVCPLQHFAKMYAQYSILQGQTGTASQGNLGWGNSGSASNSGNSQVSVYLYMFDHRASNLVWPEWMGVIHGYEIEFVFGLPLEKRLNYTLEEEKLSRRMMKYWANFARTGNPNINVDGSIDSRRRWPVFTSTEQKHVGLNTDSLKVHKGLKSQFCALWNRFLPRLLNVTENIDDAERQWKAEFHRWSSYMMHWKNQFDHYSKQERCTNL
Experimental for AChE from electric eel: (§3) According to the Ellman’s method, assays were performed on AChE from electric eel (C3389-500UN; Sigma) and BuChE from equine serum (C4290-1KU; Sigma). The experiment was performed in 48-well plates in a final volume of 500 µL. Each well contained 0.036 U/mL of eeAChE or eqBuChE, and 0.1 M pH 8 PBS. They were pre-incubated for 20 min at different compound concentrations at 37 °C. […] The DTNB produces the yellow anion 5-thio-2-nitrobenzoic acid along with the enzymatic degradation of ACh or BuCh. Changes in absorbance were measured at 410 nm after 20 min in a PerkinElmer VICTOR Nivo reader. The IC50 values were calculated graphically from inhibition curves (log inhibitor concentration vs percent of inhibition). A control experiment was performed under the same conditions without inhibitor and the blank contained buffer, DMSO, DTNB, and substrate.
Experimental for BuChE from equine serum: as §3
Experimental for in vitro: as §1, §2

Compound `O=S(=O)(F)C(Br)=CC=Cc1ccccc1` [Compound A1, δ-phenyl-α-Br-dienyl sulphonyl fluoride] showed an IC50 at BuChE from equine serum of 82 ± 7 nM.
Regarding `O=S(=O)(F)C(Br)=CC=Cc1ccc(F)cc1` [Compound A2], on BuChE from equine serum, the IC50 came to 430 ± 10 nM.
Consider `O=S(=O)(F)C(Br)=CC=Cc1ccc(Cl)cc1` [Compound A3], for which the “AChE % inhibition at 20 µM” value at AChE from electric eel (setting [2]) was found to be 33.9 ± 0.9%. Besides, the “BuChE % inhibition at 20 µM” value at BuChE from equine serum is on record as 42.2 ± 2.1%.
On to `O=S(=O)(F)C(Br)=CC=Cc1ccc(Br)cc1` [Compound A4], for which the “BuChE % inhibition at 20 µM” value on BuChE from equine serum was 19.2 ± 1.2%.
As for `Cc1ccc(C=CC=C(Br)S(=O)(=O)F)cc1` [Compound A5], the IC50 on BuChE from equine serum was 1720 ± 340 nM.
`COc1ccc(C=CC=C(Br)S(=O)(=O)F)cc1` [Compound A6] registered an IC50 against BuChE from equine serum of 310 ± 40 nM.
Consider `O=S(=O)(F)C(Br)=CC=Cc1ccc(-c2ccccc2)cc1` [Compound A7], for which the results for the inhibition at 20 µM on AChE from electric eel (setting [2]) and on BuChE from equine serum were 11.9 ± 0.5% and 45.2 ± 2%, respectively.
On to `O=S(=O)(F)C(Br)=CC=Cc1ccccc1Br` [Compound A8], for which the concentration for half-maximal inhibition (IC50) came to 107 ± 2 nM on AChE from electric eel (AChE from electric eel) and 440 ± 180 nM on BuChE from equine serum. In addition, the BBB penetration result in series [1] is recorded as “CNS+ (“CNS +” (high BBB permeation): Pe (× 10^‒6 cm/s) >4.0)”. For the same compound, the “Pe×10^-6cm/s Exp. value” in series [1] (PAMPA-BBB, three independent experiments) is recorded as 10.7 ×10^-6cm/s. In the series “in vitro” (pH 7.4, Pe), this compound gave a Papp of 10.7 ×10⁻⁶ cm/s.
Turning to `Cc1ccccc1C=CC=C(Br)S(=O)(=O)F` [Compound A9], the inhibition at 20 µM on AChE from electric eel (setting [2]) was found to be 23.2 ± 4%. Half-maximal inhibition against BuChE from equine serum (IC50) required 300 ± 110 nM.
For `O=[N+]([O-])c1ccccc1C=CC=C(Br)S(=O)(=O)F` [Compound A11], the values for the half-inhibitory concentration (IC50) at AChE from electric eel (AChE from electric eel) and against BuChE from equine serum were 150 ± 10 nM and 270 ± 150 nM, respectively.
With `O=S(=O)(F)C(Br)=CC=Cc1ccc2ccccc2c1` [Compound A12], the midpoint of inhibition at BuChE from equine serum, the IC50, lay at 2910 ± 260 nM.
Compound `O=S(=O)(F)C(Br)=CC=Cc1cccs1` [Compound A13] yielded an IC50 at BuChE from equine serum of 320 ± 60 nM.
`O=S(=O)(F)C(Br)=CC=Cc1cccc(Cl)c1` [Compound A14]: the inhibition at 20 µM on AChE from electric eel (setting [2]) stood at 17.9 ± 2%. Besides, the IC50 against BuChE from equine serum was determined as 110 ± 20 nM.
As for `Cc1cccc(C=CC=C(Br)S(=O)(=O)F)c1` [Compound A15], on BuChE from equine serum, inhibition was half-maximal at 600 ± 120 nM (IC50).
As for `COc1cccc(C=CC=C(Br)S(=O)(=O)F)c1` [Compound A16], the inhibition at 20 µM on AChE from electric eel (setting [2]) is 35.9 ± 1.4%. Moreover, on BuChE from equine serum, the IC50 is 300 ± 40 nM.
The matching figures for `O=S(=O)(F)C(Br)=CC=Cc1cccc(C(F)(F)F)c1` [Compound A17]: 12.1 ± 0.7% and 430 ± 30 nM.
As to `Cc1ccc(S(=O)(=O)n2cc(C=CC=C(Br)S(=O)(=O)F)c3ccccc32)cc1` [Compound A19], the inhibition at 20 µM stood at 46.2 ± 0.4% at AChE from electric eel (setting [2]) and 46 ± 1.6% at BuChE from equine serum.
In the case of `O=S(=O)(F)C(Br)=CC=CC=Cc1ccccc1` [Compound A20], the inhibition at 20 µM on AChE from electric eel came out at 18.7 ± 2.4%. The compound also came in with an IC50 on BuChE from equine serum of 12500 nM.
Take `O=S(=O)(F)/C(Cl)=C/C=C/c1ccccc1` [Compound B1]: the inhibition at 20 µM on AChE from electric eel (setting [2]) amounted to 35.9 ± 1.4%. This compound also came in with an IC50 against BuChE from equine serum of 440 ± 40 nM.
On to `O=S(=O)(F)/C(Cl)=C/C=C/c1ccc(F)cc1` [Compound B2], for which the inhibition at 20 µM on AChE from electric eel (setting [2]) amounted to 18.7 ± 1.7%. Also, at BuChE from equine serum, the IC50 was found to be 510 ± 10 nM.
The matching figures for `COc1ccc(/C=C/C=C(\Cl)S(=O)(=O)F)cc1` [Compound B4]: 30.1 ± 3.8% and 540 ± 190 nM.
For `COc1ccccc1/C=C/C=C(\Cl)S(=O)(=O)F` [Compound B5], the inhibition at 20 µM on AChE from electric eel (setting [2]) was 34.2 ± 0.4%. Also, the half-inhibitory concentration (IC50) against BuChE from equine serum worked out at 130 ± 10 nM.
Take `O=S(=O)(F)/C(Cl)=C/C=C/c1cccc(C(F)(F)F)c1` [Compound B6]: at AChE from electric eel (setting [2]), the inhibition at 20 µM turned out to be 26.8 ± 2.7%. The same compound gave a concentration for half-maximal inhibition (IC50) against BuChE from equine serum of 500 ± 210 nM.
Take `O=S(=O)(F)/C(I)=C/C=C/c1ccccc1` [Compound C1, δ-phenyl-α-I-dienyl sulphonyl fluoride]: the inhibition at 20 µM on AChE from electric eel (setting [2]) amounted to 23.4 ± 2.8%. Moreover, the IC50 on BuChE from equine serum was found to be 1760 ± 620 nM.
The matching figures for `O=S(=O)(F)/C(I)=C/C=C/c1ccc(F)cc1` [Compound C2]: 17 ± 1.7% and 450 ± 30 nM.
On to `O=S(=O)(F)/C(I)=C/C=C/c1ccc(Cl)cc1` [Compound C3], for which the inhibition at 20 µM on AChE from electric eel (setting [2]) was 38.9 ± 2.5%. The half-maximal inhibitory concentration (IC50) against BuChE from equine serum turned out to be 3070 ± 1720 nM.
For `O=S(=O)(F)/C(I)=C/C=C/c1ccc(Br)cc1` [Compound C4], the inhibition at 20 µM at AChE from electric eel (setting [2]) is 10.5 ± 3.6%. This compound yielded an IC50 against BuChE from equine serum of 570 ± 30 nM.
The matching figures for `COc1ccccc1/C=C/C=C(\I)S(=O)(=O)F` [Compound C5]: 39.5 ± 0.3% and 190 ± 40 nM.
As to `O=S(=O)(F)/C(I)=C/C=C/c1cccc(C(F)(F)F)c1` [Compound C6], the inhibition at 20 µM at AChE from electric eel (setting [2]) turned out to be 24 ± 6%. Moreover, the concentration for half-maximal inhibition (IC50) at BuChE from equine serum is 500 ± 40 nM.
`CCc1ccc(/C(=C\C=C\c2ccccc2)S(=O)(=O)F)cc1` [Compound D1]: on AChE from electric eel (setting [2]), the inhibition at 20 µM was determined as 25.1 ± 1.6%. On BuChE from equine serum, this compound displayed an IC50 of 1180 ± 330 nM.
For `CSc1ccc(/C(=C\C=C\c2ccccc2)S(=O)(=O)F)cc1` [Compound D2], the inhibition at 20 µM on AChE from electric eel (setting [2]) amounted to 25.5 ± 0.4%; at BuChE from equine serum, 28.2 ± 1.89%.
With `COc1ccc(/C(=C\C=C\c2ccccc2)S(=O)(=O)F)cc1` [Compound D3], the figures for the inhibition at 20 µM on AChE from electric eel (setting [2]) and on BuChE from equine serum were 47.9 ± 0.4% and 33.7 ± 1.8%, respectively.
For the compound `O=S(=O)(F)/C(=C/C=C/c1ccccc1)c1ccc(Oc2ccccc2)cc1` [Compound D4], the inhibition at 20 µM on AChE from electric eel (setting [2]) is 36.7 ± 2.8%; at BuChE from equine serum it was 41.2 ± 1.1%.
In the case of `O=S(=O)(F)/C(=C/C=C/c1ccccc1)c1ccc(Br)cc1` [Compound D5], the inhibition at 20 µM on AChE from electric eel (setting [2]) amounted to 29 ± 3.4%; at BuChE from equine serum, 30.5 ± 0.9%.
Consider `O=C(Oc1ccc(/C(=C\C=C\c2ccccc2)S(=O)(=O)F)cc1)c1ccccc1` [Compound D6], for which the inhibition at 20 µM on AChE from electric eel (setting [2]) stood at 18.7 ± 2.1%; on BuChE from equine serum, 29.7 ± 3.8%.
As for `O=S(=O)(F)/C(=C/C=C/c1ccccc1)c1ccc2ccccc2c1` [Compound D7], the inhibition at 20 µM amounted to 42.3 ± 0.5% on AChE from electric eel (setting [2]) and 7.4 ± 0.2% at BuChE from equine serum.
Turning to `O=S(=O)(F)/C(C#Cc1cccc(Br)c1)=C/C=C/c1ccccc1` [Compound D8], the figures for the 50% inhibitory concentration (IC50) on AChE from electric eel (AChE from electric eel) and at BuChE from equine serum were 2730 ± 100 nM and 4560 ± 2650 nM, respectively.
As to `O=S(=O)(F)/C(C#Cc1ccccc1F)=C/C=C/c1ccccc1` [Compound D9], the inhibition at 20 µM was 47.7 ± 1.9% at AChE from electric eel (setting [2]) and 31.7 ± 1% at BuChE from equine serum.
Take `O=S(=O)(F)/C(C#Cc1ccc(Br)cc1)=C/C=C/c1ccccc1` [Compound D10]: the inhibition at 20 µM at AChE from electric eel (setting [2]) came out at 36.9 ± 1.2%; at BuChE from equine serum, 22.6 ± 0.7%.
On to `O=S(=O)(F)/C(C#Cc1ccccc1)=C/C=C/c1ccccc1` [Compound D11], for which the inhibition at 20 µM on AChE from electric eel (setting [2]) worked out at 30.4 ± 0.1%; at BuChE from equine serum, 24.3 ± 0.4%.
Regarding `Cc1ccc(C#C/C(=C\C=C\c2ccccc2)S(=O)(=O)F)cc1` [Compound D12], the inhibition at 20 µM stood at 43.5 ± 4% at AChE from electric eel (setting [2]) and 34.7 ± 0.1% at BuChE from equine serum.
With `O=S(=O)(F)/C(C#Cc1ccsc1)=C/C=C/c1ccccc1` [Compound D13], the values for the inhibition at 20 µM on AChE from electric eel (setting [2]) and at BuChE from equine serum were 14.7 ± 0.2% and 31.3 ± 0.4%, respectively.
Regarding `O=S(=O)(F)/C(C#CC1CC1)=C/C=C/c1ccccc1` [Compound D14], the IC50 on AChE from electric eel (AChE from electric eel) worked out at 1540 ± 320 nM; against BuChE from equine serum it was 430 ± 80 nM.
`CC(=O)[C@H]1CC[C@H]2[C@@H]3CCC4=CC(=O)CC[C@]4(C)[C@H]3CC[C@]12C` [Progesterone, reference compound]: in series [1], the BBB penetration entry is “CNS+ (“CNS +” (high BBB permeation): Pe (× 10^‒6 cm/s) >4.0)”. Further, in the series “in vitro” (pH 7.4, Pe×10^-6cm/s Exp. value, three independent experiments), the Papp is 18.2 ×10⁻⁶ cm/s.

(Values after publication PMC8386747, “Structure–activity relationship, in vitro and in vivo evaluation of novel dienyl sulphonyl fluorides as selective BuChE inhibitors for the treatment of Alzheimer's disease” (Journal of Enzyme Inhibition and Medicinal Chemistry, 2021).)
